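Growth conditions: 96-well plates. Treatment: test compound, 48 hours, 5 concentrations. Analysis: linear interpolation between bracketing concentrations; unreached endpoints set to highest concentration. GI50 is the concentration that inhibits growth by half. At the TGI there is no net growth.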
Assays:
Test in all cases: NCI tumour cell line growth inhibition, 48 h
[1] = tested on: OVCAR-4 ovarian
[2] = tested on: MDA-MB-231 breast
[3] = tested on: RXF 393 renal
[4] = tested on: A498 renal
[5] = tested on: U251 CNS
[6] = tested on: RPMI-8226 leukemia
[7] = tested on: HCT-116 colon
[8] = tested on: CAKI-1 renal
[9] = tested on: HL-60(TB) leukemia
[10] = tested on: UACC-62 melanoma

Compound | GI50 [1] | TGI [1] | GI50 [2] | TGI [2] | GI50 [3] | TGI [3] | TGI [4] | TGI [5] | TGI [6] | TGI [7] | TGI [8] | TGI [9] | TGI [10] | GI50 [4] | GI50 [6] | GI50 [10] | GI50 [9] | GI50 [5] | GI50 [7] | GI50 [8]
COc1ccc(CNCCN2C(=O)c3ccc4c5c(ccc(c35)C2=O)C(=O)N(CCNCc2ccc(OC)c(OC)c2OC)C4=O)c(OC)c1OC | 0.0762 µM | 0.146 µM | 0.239 µM | 2.37 µM | 0.279 µM | 1.42 µM |  |  |  |  |  |  |  |  |  |  |  |  |  | 
N#Cc1cc([N+](=O)[O-])ccc1NC(=O)C(=O)Nn1c(=S)[nH]c2ccccc2c1=O |  | > 100 µM |  |  |  | > 100 µM | > 100 µM | > 100 µM | > 100 µM | > 100 µM | > 100 µM | > 100 µM |  |  |  |  |  |  |  | 
Cc1ccc2c(=O)cc(-c3ccccc3)[nH]c2n1 |  | > 100 µM |  | 22.8 µM |  | 0.486 µM |  | > 26.3 µM | > 15.1 µM | 59.4 µM | > 72.9 µM |  |  |  |  |  |  |  |  | 
COc1cccc2c1CCc1sc(CN3CCN(C)CC3)nc1-2 |  | > 100 µM |  | > 100 µM |  | > 100 µM | > 100 µM | > 100 µM | > 100 µM | > 100 µM | > 100 µM |  | 65.7 µM |  |  |  |  |  |  | 
CN(CCCNC(=O)c1[nH]nc2c1ccc1ccccc12)CCCNC(=O)c1[nH]nc2c1ccc1ccccc12 |  | 37.4 µM |  | 23.4 µM |  | 30.5 µM | 31.9 µM | 28.4 µM |  | 25.2 µM | 33.6 µM | 10.4 µM | 21.6 µM |  |  |  |  |  |  | 
Cn1cnc([N+](=O)[O-])c1Sc1nnc(-c2ccc(Cl)cc2)n1C |  | 27.1 µM |  |  |  | 17 µM | 81.8 µM | 30.4 µM | 71.3 µM | 25.8 µM | 29.7 µM |  | 29 µM |  |  |  |  |  |  | 
CCOC(=O)C1=C(C)NC(c2ccccc2)=C(C(=O)OCc2ccccc2)C1C#Cc1ccccc1 (stereo not drawn) |  |  |  |  |  | > 100 µM | > 100 µM | > 100 µM | > 100 µM | > 100 µM | 57.4 µM | > 100 µM | > 100 µM |  |  |  |  |  |  | 
O=C(N/N=C/c1ccc(O)cc1)NNCCO |  |  |  | > 100 µM |  |  | > 100 µM | > 100 µM |  | > 100 µM | > 100 µM | > 100 µM | > 100 µM |  |  |  |  |  |  | 
CCCN1CCN(c2ccc3nc(-c4ccc5nc(-c6ccc(OCC)cc6)[nH]c5c4)[nH]c3c2)CC1 |  |  |  |  |  |  | 3.01 µM |  | 2.85 µM |  |  | 3.55 µM | 26.7 µM | 1.3 µM | 0.382 µM | 1.07 µM | 1.08 µM |  |  | 
Cc1nc2cc3[nH]c4ccccc4c(=O)c3cc2s1 |  | > 100 µM |  |  |  | > 100 µM | > 100 µM | > 100 µM | > 100 µM | > 100 µM | > 100 µM | > 100 µM | > 100 µM |  |  |  |  |  |  | 
C#CCN1C(=O)CN2C(Cl)(Cl)C2(c2ccccc2)c2cc(Cl)ccc21 (stereo not drawn) |  | > 100 µM |  |  |  | > 100 µM |  |  | > 100 µM | > 100 µM | > 100 µM |  |  |  |  |  |  |  |  | 
CCN(CC)CCNC(=O)C1COc2ccc(-c3cc(=O)c4ccccc4o3)cc2O1 (stereo not drawn) |  | 35.8 µM |  |  |  | 35.4 µM | 30.3 µM | > 65.2 µM | 55.2 µM | 32.7 µM | 43.3 µM | 30.8 µM | 31.9 µM |  |  |  |  |  |  | 
O=C(/C=C/c1cc2ccccc2[nH]c1=O)c1ccc(O)cc1 |  |  | 3.51 µM | 15 µM | 1.65 µM | 3.23 µM | 21.3 µM | 10.9 µM | 24.8 µM | 4.38 µM | > 100 µM | 6.86 µM | 8.73 µM | 8.44 µM | 3.2 µM | 2.88 µM | 2.66 µM | 2.6 µM | 1.94 µM | 4.71 µM
O=C1C2Cc3ccccc3CN2C(=O)N1CN1CCCCC1 (stereo not drawn) |  | > 100 µM |  |  |  |  | > 100 µM | > 100 µM | > 100 µM |  | > 100 µM | 88.3 µM | > 100 µM |  |  |  |  |  |  | 
c1ccc(C2SCc3nc4ccccc4n32)cc1 (stereo not drawn) |  | > 100 µM |  |  |  | > 100 µM | > 100 µM | > 100 µM | 67.3 µM | > 100 µM | > 100 µM | 46.5 µM | > 100 µM |  |  |  |  |  |  | 
CC(=O)[C@H]1CC[C@@H]2[C@]1(C)CC=C1[C@]23C=C[C@]2(C[C@@H](O)CC[C@]12C)C(C(=O)O)C3C(=O)O (stereo partly drawn) |  | > 100 µM |  | > 100 µM |  |  | > 100 µM | > 100 µM | > 100 µM | > 100 µM | > 100 µM | > 100 µM | > 100 µM |  |  |  |  |  |  | 
COC(=O)C12CCC(CC1=O)C2(C)C (stereo not drawn) |  | > 100 µM |  |  |  | > 100 µM | > 100 µM | > 100 µM | > 100 µM | > 100 µM |  | > 100 µM | > 100 µM |  |  |  |  |  |  | 
CN1C(=O)c2c(c3c4ccccc4n(C)c3c3c2c2ccccc2n3C)C1=O |  | > 100 µM |  | > 100 µM |  |  | > 100 µM | > 100 µM | > 100 µM | > 100 µM | > 100 µM |  | > 100 µM |  |  |  |  |  |  | 
N#Cc1ccccc1C#C/C=C\C#Cc1ccccn1 |  | > 100 µM |  |  |  | 33.1 µM |  | 38.3 µM |  | 24.3 µM | 83.1 µM | 63.6 µM | 37 µM |  |  |  |  |  |  | 
CC(=O)O[C@H]1C(=O)[C@@]2(C)C(C(OC(=O)c3ccccc3)[C@]3(O)CC(OC(=O)C(O)C(NC(=O)c4cccc(Cl)c4)c4ccccc4)C(C)=C1C3(C)C)[C@]1(OC(C)=O)CO[C@@H]1C[C@@H]2O (stereo partly drawn) |  | > 10 µM |  | 8.72 µM |  |  |  | 8.9 µM | > 10 µM | 5.12 µM | > 10 µM | 0.419 µM |  |  |  |  |  |  |  | 
CCOC1=C2N=C(C(CC)c3ccc(F)cc3)N=C2C(=O)c2ccccc21 (stereo not drawn) |  | > 94.4 µM |  |  |  | 39.5 µM |  | 53.5 µM | > 88.5 µM | > 61.3 µM | 84.7 µM | > 73.7 µM | 29.7 µM |  |  |  |  |  |  | 
CCN1CC2(CO)CCC(OC)C34C5CC6C(OC)CC(O)(C5C6OC)C(O)(C(OC)C23)C14 (stereo not drawn) |  | > 375 µM |  |  |  | > 375 µM | > 375 µM | > 375 µM | > 375 µM | > 375 µM | > 375 µM | > 375 µM | > 375 µM |  |  |  |  |  |  | 
Nc1nc2c(nnn2C2C=C(CO)C(O)C2O)c(=O)[nH]1 (stereo not drawn) |  | > 100 µM |  |  |  | > 100 µM | > 100 µM | > 100 µM |  | > 100 µM | > 100 µM |  | > 100 µM |  |  |  |  |  |  | 
CC(C)c1cccc(C(C)C)c1NC(=O)/C(Cc1nc2ccc(Cl)cc2[nH]c1=O)=N\NC(=O)C[N+](C)(C)C |  | > 100 µM |  |  |  | > 100 µM | > 100 µM |  | > 100 µM | > 100 µM | > 100 µM | > 100 µM | > 100 µM |  |  |  |  |  |  | 

Reference: PubChem BioAssay (NCI)
